Experimental data reported in the NIST ThermoML archive (doi:10.1016/j.jct.2014.01.012).

Assay: refractive index (Na D-line) (dimensionless); xn = mol fraction of the nth substance listed
Conditions: 101 kPa, Liquid

CCCCCCCC[n+]1ccn(C)c1.F[P-](F)(F)(F)(F)F [1-octyl-3-methylimidazolium hexafluorophosphate] + CCCCOC(C)=O
refractive index
Conditions | x1 = 0.1078 | x1 = 0.2016 | x1 = 0.3056 | x1 = 0.3855 | x1 = 0.4815 | x1 = 0.5918 | x1 = 0.6857 | x1 = 0.7784 | x1 = 0.8946 | x1 = 1
293.15 K | 1.40113 | 1.40658 | 1.41215 | 1.41536 | 1.41829 | 1.42036 | 1.42188 | 1.42339 | 1.42502 | 1.42649
298.15 K | 1.39916 | 1.40486 | 1.41053 | 1.41402 | 1.41692 | 1.41924 | 1.42067 | 1.42219 | 1.42373 | 1.42512
303.15 K | 1.39682 | 1.40307 | 1.40886 | 1.41241 | 1.41546 | 1.41801 | 1.41931 | 1.42073 | 1.42217 | 1.42376
308.15 K | 1.39502 | 1.40132 | 1.40721 | 1.41099 | 1.41402 | 1.41668 | 1.41801 | 1.41955 | 1.42089 | 1.4224
313.15 K | 1.39308 | 1.39963 | 1.40556 | 1.40944 | 1.41256 | 1.41529 | 1.41687 | 1.41835 | 1.41966 | 1.42103
318.15 K | 1.39114 | 1.39793 | 1.40399 | 1.40796 | 1.41132 | 1.41404 | 1.41575 | 1.41726 | 1.41848 | 1.41967
323.15 K | 1.38914 | 1.39622 | 1.40245 | 1.40652 | 1.41001 | 1.41272 | 1.41456 | 1.41606 | 1.41731 | 1.41831

CCCCCCCC[n+]1ccn(C)c1.F[P-](F)(F)(F)(F)F [1-octyl-3-methylimidazolium hexafluorophosphate] + CCOC(C)=O
refractive index
Conditions | x1 = 0.1056 | x1 = 0.2064 | x1 = 0.308 | x1 = 0.4094 | x1 = 0.4991 | x1 = 0.5916 | x1 = 0.694 | x1 = 0.8121 | x1 = 0.8895 | x1 = 1
293.15 K | 1.38873 | 1.40004 | 1.40816 | 1.41301 | 1.41629 | 1.41842 | 1.4208 | 1.42285 | 1.42447 | 1.42649
298.15 K | 1.38754 | 1.39899 | 1.40705 | 1.41196 | 1.41523 | 1.41771 | 1.41971 | 1.42189 | 1.42354 | 1.42512
303.15 K | 1.38545 | 1.39759 | 1.40552 | 1.41088 | 1.41385 | 1.41655 | 1.41878 | 1.42063 | 1.42188 | 1.42376
308.15 K | 1.38383 | 1.39634 | 1.40439 | 1.40952 | 1.41311 | 1.41557 | 1.41792 | 1.42016 | 1.42072 | 1.4224
313.15 K | 1.38267 | 1.39498 | 1.40318 | 1.40842 | 1.41186 | 1.41447 | 1.41699 | 1.41906 | 1.41956 | 1.42103
318.15 K | 1.38145 | 1.39381 | 1.40208 | 1.40767 | 1.41108 | 1.41348 | 1.41612 | 1.41805 | 1.41852 | 1.41967
323.15 K | 1.38027 | 1.39276 | 1.40106 | 1.40658 | 1.41002 | 1.41266 | 1.41504 | 1.41746 | 1.41744 | 1.41831
